In PubChem BioAssay (NCI):
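Five concentrations, 48 hours, 96-well plates. GI50 = concentration required for 50% inhibition of growth. TGI: concentration producing complete growth inhibition.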 Where a SMILES comes first, the peptide text is derived from it. [ ]: non-standard residue; d: D form. The star is where a group is joined. ξ: configuration not given here. Decanoyl(3R-OH) = CCCCCCC[C@@H](O)CC(=O)*; ξK = NCCCCC(N)C(=O)O; ξP = O=C(O)C1CCCN1

What was measured:
Assay in all cases: DTP human tumour cell line panel, 48 h
[1] = tested on: HL-60(TB) leukemia
[2] = tested on: DU-145 prostate
[3] = tested on: OVCAR-8 ovarian
[4] = tested on: HCC-2998 colon
[5] = tested on: MDA-MB-231 breast
[6] = tested on: MCF7 breast
[7] = tested on: UO-31 renal
[8] = tested on: ACHN renal
[9] = tested on: TK-10 renal
[10] = tested on: OVCAR-4 ovarian
[11] = tested on: SK-OV-3 ovarian
[12] = tested on: SN12C renal
[13] = tested on: SK-MEL-28 melanoma
[14] = tested on: SNB-19 CNS
[15] = tested on: SK-MEL-2 melanoma
[16] = tested on: NCI-H226 lung
[17] = tested on: T-47D breast
[18] = tested on: A498 renal
[19] = tested on: SNB-75 CNS
[20] = tested on: SR leukemia
[21] = tested on: M14 melanoma
[22] = tested on: NCI-H460 lung
[23] = tested on: CCRF-CEM leukemia
[24] = tested on: HOP-62 NSCLC
[25] = tested on: IGROV1 ovarian
[26] = tested on: HCT-15 colon
[27] = tested on: K-562 leukemia
[28] = tested on: UACC-257 melanoma
[29] = tested on: SK-MEL-5 melanoma
[30] = tested on: U251 CNS
[31] = tested on: HOP-92 NSCLC
[32] = tested on: NCI-H23 lung
[33] = tested on: MOLT-4 leukemia
[34] = tested on: MALME-3M melanoma
[35] = tested on: SW-620 colon
[36] = tested on: HCT-116 colon
[37] = tested on: RXF 393 renal
[38] = tested on: MDA-MB-435
[39] = tested on: COLO 205 colon
[40] = tested on: A549 NSCLC
[41] = tested on: 786-0 renal
[42] = tested on: SF-295 CNS
[43] = tested on: EKVX NSCLC
[44] = tested on: KM12 colon
[45] = tested on: OVCAR-5 ovarian
[46] = tested on: HT29 colon
[47] = tested on: HS 578T breast
[48] = tested on: SF-268 CNS
[49] = tested on: SF-539 CNS
[50] = tested on: NCI/ADR-RES ovarian
[51] = tested on: UACC-62 melanoma
[52] = tested on: RPMI-8226 leukemia

Question: What does the source list for CCCCCCC[C@@H](O)CC(=O)N[C@H](CCCCN)C(=O)N[C@H](Cc1c[nH]c2ccccc12)C(=O)NC(CCCCN)C(=O)N[C@H](CC(C)C)C(=O)N[C@H](Cc1ccccc1)C(=O)N[C@H](CCCCN)C(=O)N[C@H](CCCCN)C(=O)N[C@H](CC(C)C)C(=O)N1CCCC1C(=O)N[C@H](CCCCN)C(=O)N[C@H](Cc1ccccc1)C(=O)N[C@H](CC(C)C)C(=O)N[C@H](Cc1c[nH]cn1)C(=O)N[C@H](CC(C)C)C(=O)N[C@H](C)C(=O)N[C@H](CCCCN)C(=O)N[C@H](CCCCN)C(=O)N[C@H](Cc1ccccc1)C(=O)O (stereo partly drawn) ({Decanoyl(3R-OH)}-[dK][dW][ξK][dL][dF][dK][dK][dL][ξP][dK][dF][dL][dH][dL][dA][dK][dK][dF]-OH)?
Answer: GI50 [1]: 0.743 µM; TGI [1]: 1.71 µM; GI50 [2]: 0.607 µM; TGI [2]: 1.12 µM; GI50 [3]: 0.814 µM; TGI [3]: 33.3 µM

Question: C=CCOC(=O)CCCCCCCCCCCCCCCOC(=O)C1=C(CCC[C@@H](C)O[Si](C)(C)C(C)(C)C)N=C(N)N2[C@H](CC3(CC/C=C\[C@H](CC)O[Si](C(C)C)(C(C)C)C(C)C)OCCO3)CC[C@@H]12 was tested. Which TGI [4] did it give?
Answer: > 100 µM

Question: What about the TGI [5] of the same molecule?
Answer: > 100 µM

Question: And the TGI [6]?
Answer: > 100 µM

Question: And the TGI [7]?
Answer: > 100 µM

Question: What about the TGI [8] of the same molecule?
Answer: > 100 µM

Question: What about the TGI [9] of the same molecule?
Answer: > 100 µM

Question: And the TGI [10]?
Answer: > 100 µM

Question: And the TGI [2]?
Answer: > 100 µM

Question: What about the TGI [11] of the same molecule?
Answer: > 100 µM

Question: What about the TGI [12] of the same molecule?
Answer: > 100 µM

Question: What about the TGI [13] of the same molecule?
Answer: > 100 µM

Question: And the TGI [14]?
Answer: > 100 µM

Question: And the TGI [15]?
Answer: > 100 µM

Question: What about the TGI [16] of the same molecule?
Answer: > 100 µM

Question: And the TGI [17]?
Answer: > 100 µM

Question: What about the TGI [18] of the same molecule?
Answer: > 100 µM

Question: And the TGI [19]?
Answer: > 100 µM

Question: Which TGI [20] does the source give for NNC(N)=Nc1cccc2ccccc12 here?
Answer: > 100 µM

Question: What about the TGI [21] of the same molecule?
Answer: > 100 µM

Question: And the TGI [4]?
Answer: > 100 µM

Question: And the TGI [22]?
Answer: > 100 µM

Question: And the TGI [5]?
Answer: > 100 µM

Question: And the TGI [23]?
Answer: > 100 µM

Question: What about the TGI [24] of the same molecule?
Answer: > 100 µM

Question: And the TGI [6]?
Answer: > 100 µM

Question: What about the TGI [7] of the same molecule?
Answer: > 100 µM

Question: And the TGI [1]?
Answer: > 100 µM

Question: What about the TGI [25] of the same molecule?
Answer: > 100 µM

Question: And the TGI [26]?
Answer: > 100 µM

Question: What about the TGI [27] of the same molecule?
Answer: > 100 µM

Question: And the TGI [8]?
Answer: > 100 µM

Question: What about the TGI [28] of the same molecule?
Answer: > 100 µM

Question: And the TGI [29]?
Answer: > 100 µM

Question: And the TGI [30]?
Answer: > 100 µM

Question: What about the TGI [31] of the same molecule?
Answer: 92.4 µM

Question: And the TGI [9]?
Answer: > 100 µM

Question: What about the TGI [10] of the same molecule?
Answer: > 100 µM

Question: What about the TGI [32] of the same molecule?
Answer: > 100 µM

Question: And the TGI [33]?
Answer: > 100 µM

Question: What about the TGI [34] of the same molecule?
Answer: > 100 µM

Question: And the TGI [35]?
Answer: > 100 µM

Question: What about the TGI [2] of the same molecule?
Answer: > 100 µM

Question: What about the TGI [11] of the same molecule?
Answer: > 100 µM

Question: And the TGI [36]?
Answer: > 100 µM

Question: What about the TGI [12] of the same molecule?
Answer: > 100 µM

Question: And the TGI [37]?
Answer: > 100 µM

Question: What about the TGI [38] of the same molecule?
Answer: > 100 µM

Question: And the TGI [39]?
Answer: > 100 µM

Question: What about the TGI [13] of the same molecule?
Answer: > 100 µM

Question: What about the TGI [40] of the same molecule?
Answer: > 100 µM

Question: And the TGI [41]?
Answer: > 100 µM

Question: What about the TGI [42] of the same molecule?
Answer: > 100 µM

Question: And the TGI [43]?
Answer: > 100 µM

Question: And the TGI [14]?
Answer: > 100 µM

Question: And the TGI [44]?
Answer: > 100 µM

Question: And the TGI [45]?
Answer: > 100 µM

Question: And the TGI [16]?
Answer: > 100 µM

Question: And the TGI [17]?
Answer: > 100 µM

Question: And the TGI [3]?
Answer: > 100 µM

Question: And the TGI [18]?
Answer: > 100 µM

Question: And the TGI [19]?
Answer: > 100 µM

Question: What about the TGI [46] of the same molecule?
Answer: > 100 µM

Question: What about the TGI [47] of the same molecule?
Answer: > 100 µM

Question: And the TGI [48]?
Answer: > 100 µM

Question: And the TGI [49]?
Answer: > 100 µM

Question: And the TGI [50]?
Answer: > 100 µM

Question: What about the TGI [51] of the same molecule?
Answer: > 100 µM

Question: And the TGI [52]?
Answer: > 100 µM
